Common to all, as to type: cell-based
Assay [1] deals with T1, human TLR7 (Homo sapiens, UniProt Q9NYK1).
T1 construct: host or cells: HEK-Blue cells
T1 sequence (Q9NYK1 27-1049): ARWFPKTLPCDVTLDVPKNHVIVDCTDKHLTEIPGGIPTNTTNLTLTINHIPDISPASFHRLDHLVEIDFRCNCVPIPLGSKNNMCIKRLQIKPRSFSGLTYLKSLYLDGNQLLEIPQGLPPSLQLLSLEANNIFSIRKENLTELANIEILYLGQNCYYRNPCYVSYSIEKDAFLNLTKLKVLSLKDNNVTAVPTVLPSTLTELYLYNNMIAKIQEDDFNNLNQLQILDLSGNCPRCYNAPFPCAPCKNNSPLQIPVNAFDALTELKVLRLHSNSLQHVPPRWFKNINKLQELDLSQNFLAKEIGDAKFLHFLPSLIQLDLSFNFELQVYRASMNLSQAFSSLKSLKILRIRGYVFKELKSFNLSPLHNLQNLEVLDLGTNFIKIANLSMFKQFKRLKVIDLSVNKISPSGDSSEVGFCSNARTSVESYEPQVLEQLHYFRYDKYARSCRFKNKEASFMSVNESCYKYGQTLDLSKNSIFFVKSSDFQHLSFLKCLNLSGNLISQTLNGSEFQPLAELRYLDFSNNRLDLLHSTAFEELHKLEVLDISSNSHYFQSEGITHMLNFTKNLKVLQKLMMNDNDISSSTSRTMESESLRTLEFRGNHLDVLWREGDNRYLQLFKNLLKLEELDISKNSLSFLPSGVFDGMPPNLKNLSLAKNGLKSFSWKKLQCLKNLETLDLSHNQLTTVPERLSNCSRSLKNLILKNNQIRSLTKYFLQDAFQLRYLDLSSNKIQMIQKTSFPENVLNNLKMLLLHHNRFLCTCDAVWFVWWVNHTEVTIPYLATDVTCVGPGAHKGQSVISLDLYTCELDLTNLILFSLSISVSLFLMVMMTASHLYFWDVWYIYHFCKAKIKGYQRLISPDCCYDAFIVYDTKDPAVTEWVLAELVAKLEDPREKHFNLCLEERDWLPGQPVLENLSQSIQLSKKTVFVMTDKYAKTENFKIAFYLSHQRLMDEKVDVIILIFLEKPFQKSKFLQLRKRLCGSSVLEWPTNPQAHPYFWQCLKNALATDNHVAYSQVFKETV
Nature of the assay: TLR7 inhibition reporter assay (HEK-Blue cells, SEAP reporter, gardiquimod stimulation). The following applies: HEK-Blue cells overexpressing human TLR7, SEAP reporter, gardiquimod 7.5 μM; read-out: TLR7 IC50. The gist of the method: (§1)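 Agonists used: gardiquimod 7.5 μM (TLR7), R848 15.9 μM (TLR8), ODN2006 5 nM (TLR9), added after 30 min room-temperature compound pre-treatment (0.05 nM–50 μM) of receptor-overexpressing HEK-Blue cells. SEAP reporter (NF-κB/AP-1 driven) read after 22 h at 37 °C; inhibition scaled between agonist+DMSO and reference-inhibitor wells.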

The target in assay [2] is T2, human TLR9 (Homo sapiens, UniProt Q9NR96).
T2 construct: host or cells: HEK-Blue cells
T2 sequence (Q9NR96 26-1032): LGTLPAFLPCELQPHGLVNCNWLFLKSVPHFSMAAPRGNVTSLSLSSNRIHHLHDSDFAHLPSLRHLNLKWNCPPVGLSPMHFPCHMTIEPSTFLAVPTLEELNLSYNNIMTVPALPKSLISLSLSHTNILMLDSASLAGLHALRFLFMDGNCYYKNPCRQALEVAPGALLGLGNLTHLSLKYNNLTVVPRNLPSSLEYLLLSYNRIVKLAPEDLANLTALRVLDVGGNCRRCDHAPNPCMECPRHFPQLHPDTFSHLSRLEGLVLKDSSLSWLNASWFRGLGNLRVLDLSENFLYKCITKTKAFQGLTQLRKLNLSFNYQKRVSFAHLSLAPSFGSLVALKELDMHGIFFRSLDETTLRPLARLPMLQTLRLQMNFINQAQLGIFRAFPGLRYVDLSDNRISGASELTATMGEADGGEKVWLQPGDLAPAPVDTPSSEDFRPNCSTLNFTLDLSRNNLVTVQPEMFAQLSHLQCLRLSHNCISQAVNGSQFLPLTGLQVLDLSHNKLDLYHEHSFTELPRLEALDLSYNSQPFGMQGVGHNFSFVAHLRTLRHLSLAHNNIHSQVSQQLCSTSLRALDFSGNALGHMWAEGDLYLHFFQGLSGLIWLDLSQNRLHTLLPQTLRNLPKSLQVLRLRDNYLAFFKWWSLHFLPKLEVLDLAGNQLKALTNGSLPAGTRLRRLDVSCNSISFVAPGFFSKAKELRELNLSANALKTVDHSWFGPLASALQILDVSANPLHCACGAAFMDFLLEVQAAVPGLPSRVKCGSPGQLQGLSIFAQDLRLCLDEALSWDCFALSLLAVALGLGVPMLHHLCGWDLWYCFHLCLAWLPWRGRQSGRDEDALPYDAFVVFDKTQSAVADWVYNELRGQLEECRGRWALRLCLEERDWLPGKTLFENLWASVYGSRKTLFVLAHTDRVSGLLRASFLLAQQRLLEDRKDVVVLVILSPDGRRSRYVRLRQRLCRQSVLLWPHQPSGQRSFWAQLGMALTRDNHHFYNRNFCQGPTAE
Briefly: TLR9 inhibition reporter assay (HEK-Blue cells, SEAP reporter, ODN2006 stimulation). As to conditions: HEK-Blue cells overexpressing human TLR9, SEAP reporter, ODN2006 5 nM. Put shortly: as §1

Assay [3] concerns the target T3, human TLR8 (Homo sapiens, UniProt Q9NR97).
T3 construct: host or cells: HEK-Blue cells
T3 sequence (Q9NR97 27-1041): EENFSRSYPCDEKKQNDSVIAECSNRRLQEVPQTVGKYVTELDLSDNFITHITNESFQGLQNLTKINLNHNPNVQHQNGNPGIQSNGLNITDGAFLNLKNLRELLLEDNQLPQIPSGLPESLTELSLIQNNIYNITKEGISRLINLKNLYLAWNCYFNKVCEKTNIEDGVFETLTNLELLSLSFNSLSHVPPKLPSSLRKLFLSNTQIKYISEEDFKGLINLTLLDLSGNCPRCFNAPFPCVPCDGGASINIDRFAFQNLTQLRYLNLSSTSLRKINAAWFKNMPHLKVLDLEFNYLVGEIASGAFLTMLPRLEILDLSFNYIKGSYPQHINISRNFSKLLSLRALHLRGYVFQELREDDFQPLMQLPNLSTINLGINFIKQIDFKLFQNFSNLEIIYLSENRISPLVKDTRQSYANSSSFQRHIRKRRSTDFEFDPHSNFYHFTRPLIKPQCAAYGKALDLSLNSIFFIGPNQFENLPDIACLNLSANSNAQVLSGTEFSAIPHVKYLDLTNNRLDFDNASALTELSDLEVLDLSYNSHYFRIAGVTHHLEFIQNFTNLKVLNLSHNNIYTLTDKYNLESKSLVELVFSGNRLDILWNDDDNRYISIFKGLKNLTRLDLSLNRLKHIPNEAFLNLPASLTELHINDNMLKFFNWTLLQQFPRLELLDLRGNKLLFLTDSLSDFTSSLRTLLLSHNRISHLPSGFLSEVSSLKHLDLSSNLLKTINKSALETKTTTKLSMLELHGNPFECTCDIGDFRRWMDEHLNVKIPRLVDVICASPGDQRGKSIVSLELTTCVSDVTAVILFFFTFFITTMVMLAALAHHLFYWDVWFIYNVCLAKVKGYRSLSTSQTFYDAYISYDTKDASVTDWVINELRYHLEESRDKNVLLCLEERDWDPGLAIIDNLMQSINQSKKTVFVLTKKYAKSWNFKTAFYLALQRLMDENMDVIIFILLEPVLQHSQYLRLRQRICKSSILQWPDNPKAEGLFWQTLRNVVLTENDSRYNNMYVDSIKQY
Nature of the assay: TLR8 inhibition reporter assay (HEK-Blue cells, SEAP reporter, R848 stimulation). As to conditions: HEK-Blue cells overexpressing human TLR8, SEAP reporter, R848 15.9 μM; read-out: TLR8 IC50. Put shortly:
as §1

In the case of `Cc1cc(-c2[nH]c3sc(C4CCNCC4)nc3c2C(C)C)cc(C)n1` [Example 4, 5-(2,6-dimethylpyridin-4-yl)-6-isopropyl-2-(piperidin-4-yl)-4H-pyrrolo[3,2-d]thiazole], the IC50 in assay [1] is 5.52 nM; in assay [2], 287 nM; in assay [3], 33.9 nM.
The corresponding values for `COc1cc(-c2[nH]c3sc(C4CCN(C(=O)CN(C)C)CC4)nc3c2C(C)C)cn2ncnc12` [Example 6, 2-(dimethylamino)-1-(4-(6-isopropyl-5-(8-methoxy-[1,2,4]triazolo[1,5-a]pyridin-6-yl)-4H-pyrrolo[3,2-d]thiazol-2-yl)piperidin-1-yl)ethan-1-one] are 2.05 nM, 1100 nM and 20.9 nM.
Turning to `COc1cc(-c2[nH]c3sc(C4CCN(CC(=O)N(C)C)CC4)nc3c2C(C)C)cn2ncnc12` [Example 7, 2-(4-(6-isopropyl-5-(8-methoxy-[1,2,4]triazolo[1,5-a]pyridin-6-yl)-4H-pyrrolo[3,2-d]thiazol-2-yl)piperidin-1-yl)-N,N-dimethylacetamide], the values for the IC50 in assay [1], in assay [2] and in assay [3] were 7.8 nM, 5470 nM and 6.59 nM, respectively.
Regarding `CNC(=O)CN1CCC(c2nc3c(C(C)C)c(-c4cc(OC)c5ncnn5c4)[nH]c3s2)CC1` [Example 8, 2-(4-(6-isopropyl-5-(8-methoxy-[1,2,4]triazolo[1,5-a]pyridin-6-yl)-4H-pyrrolo[3,2-d]thiazol-2-yl)piperidin-1-yl)-N-methylacetamide], the figures for the IC50 in assay [1], in assay [2] and in assay [3] were 2.47 nM, 30900 nM and 5.42 nM, respectively.
The corresponding values for `COc1cc(-c2[nH]c3sc(C4CCN(C(C)C)CC4)nc3c2C(C)C)cn2ncnc12` [Example 10, 6-isopropyl-2-(1-isopropylpiperidin-4-yl)-5-(8-methoxy-[1,2,4]triazolo[1,5-a]pyridin-6-yl)-4H-pyrrolo[3,2-d]thiazole] are 1.37 nM, 1330 nM and 1.9 nM.
The corresponding values for `COc1cc(-c2[nH]c3sc(C4CCN(C5COC5)CC4)nc3c2C(C)C)cn2ncnc12` [Example 11, 6-isopropyl-5-(8-methoxy-[1,2,4]triazolo[1,5-a]pyridin-6-yl)-2-(1-(oxetan-3-yl)piperidin-4-yl)-4H-pyrrolo[3,2-d]thiazole] are 3.78 nM, 18500 nM and 9.31 nM.
Consider `COc1cc(-c2[nH]c3sc(C4CCN(C5CCOCC5)CC4)nc3c2C(C)C)cn2ncnc12` [Example 12, 6-isopropyl-5-(8-methoxy-[1,2,4]triazolo[1,5-a]pyridin-6-yl)-2-(1-(tetrahydro-2H-pyran-4-yl)piperidin-4-yl)-4H-pyrrolo[3,2-d]thiazole], for which the IC50 turned out to be 1.59 nM in assay [1], 2150 nM in assay [2] and 0.86 nM in assay [3].
In the same order, the values of `COc1cc(-c2[nH]c3sc(C4CCN(CC(C)(C)C)CC4)nc3c2C(C)C)cn2ncnc12` [Example 13, 6-isopropyl-5-(8-methoxy-[1,2,4]triazolo[1,5-a]pyridin-6-yl)-2-(1-neopentylpiperidin-4-yl)-4H-pyrrolo[3,2-d]thiazole] are 5.04 nM, 3330 nM and 2.03 nM.
Regarding `COc1cc(-c2[nH]c3sc(C4CCN(CC5(C)COC5)CC4)nc3c2C(C)C)cn2ncnc12` [Example 14, 6-isopropyl-5-(8-methoxy-[1,2,4]triazolo[1,5-a]pyridin-6-yl)-2-(1-((3-methyloxetan-3-yl)methyl)piperidin-4-yl)-4H-pyrrolo[3,2-d]thiazole], the results for the IC50 in assay [1], in assay [2] and in assay [3] were 1.92 nM, 3840 nM and 0.94 nM, respectively.
The corresponding values for `COc1cc(-c2[nH]c3sc(C4CCN(CC(C)(C)O)CC4)nc3c2C(C)C)cn2ncnc12` [Example 15, 1-(4-(6-isopropyl-5-(8-methoxy-[1,2,4]triazolo[1,5-a]pyridin-6-yl)-4H-pyrrolo[3,2-d]thiazol-2-yl)piperidin-1-yl)-2-methylpropan-2-ol] are 4.15 nM, 7810 nM and 3.14 nM.
In the same order, the values of `COc1cc(-c2[nH]c3sc(C4CCN(CCS(C)(=O)=O)CC4)nc3c2C(C)C)cn2ncnc12` [Example 16, 6-isopropyl-5-(8-methoxy-[1,2,4]triazolo[1,5-a]pyridin-6-yl)-2-(1-(2-(methylsulfonyl)ethyl)piperidin-4-yl)-4H-pyrrolo[3,2-d]thiazole] are 3.09 nM, 43500 nM and 2.74 nM.
With `Cc1cc(-c2[nH]c3sc(C4CCN(CC(=O)N(C)C)CC4)nc3c2C(C)C)cn2ncnc12` [Example 17, 2-(4-(6-isopropyl-5-(8-methyl-[1,2,4]triazolo[1,5-a]pyridin-6-yl)-4H-pyrrolo[3,2-d]thiazol-2-yl)piperidin-1-yl)-N,N-dimethylacetamide], the IC50 is 8.08 nM in assay [1], 3430 nM in assay [2] and 8.27 nM in assay [3].

For the origin of these results see patent US20230139171A1 (SITA Information Networking Computing UK Limited, priority 2019, published 2023).
